# Literature values as cited in patent EP3360549A1, “SMALL MOLECULE THERAPEUTICS FOR TREATING METACHROMATIC LEUKODYSTROPHY” (Rheinische Friedrich-Wilhelms-Universität Bonn, priority 2017, dated 2018).
# System: sulfatides
# Conditions: mice, brain; reduction, along with cerebrosides and sphingomyelin
smiles,measurement,value
CC(=O)CC(c1ccccc1)c1c(O)c2ccccc2oc1=O (stereo not shown) [Warfarin],reduce the levels of sulfatides,33%
